Results: patent US10479792B2, “Compounds” (GlaxoSmithKline Intellectual Property Development Limited, priority 2015, dated 2019)

Assays:
Leishmania donovani [1] = assay: Intramacrophage Leishmania donovani assay (Assay 1), average number of amastigotes per cell (potency readout); format: cell-based; details: THP-1, 96 h, amastigotes in PMA-differentiated THP-1 macrophages, 96 h incubation, read-out: pEC50 value against Leishmania donovani (converted)
Experimental: Assay 1. Intramacrophage Leishmania donovani Assay
The intramacrophage Leishmania assay was performed using a modified version of the method described in De Rycker et al. (Antimicrob Agents Chemother. 2013 July; 57(7):2913-22. Comparison of a high-throughput high-content intracellular Leishmania donovani assay with an axenic amastigote assay. De Rycker M, Hallyburton I, Thomas J, Campbell L, Wyllie S, Joshi D, Cameron S, Gilbert I H, Wyatt P G, Frearson J A, Fairlamb A H, Gray D W.). Procedure: 350 nl of compound was pre-dispensed into 384 well sterile intermediary plates. For single point screening, amphotericin B was added to all wells of column 24 as a positive control (final concentration 2 μM) and DMSO to column 23. For potency determinations, ten-point, one in three dilution curves were created with the highest concentration being 50 μM and on each plate a control curve of amphotericin B was included. Controls were as follows: columns 11 and 12: DMSO, columns 23 and 24: amphotericin B (final concentration 2 μM). To the intermediary plates, 35 μl of THP-1 media was added and plates were shaken for >5 min to ensure complete mixing. THP-1 cells (8,000 per well, 50 μl) were plated into black clear-bottom 384 well plates (Corning) in presence of 20 nM PMA. After 20 min at RT, the plates were incubated at 37° C. under 5% CO2 in a humidified incubator for 75 h. The cells were then washed with […] sterile phosphate buffered saline (PBS) supplemented with 1 mM CaCl2, 0.5 mM MgCl2, 0.1% (w/v) bovine serum albumin (PBS-A) and amastigotes were added to all wells at a multiplicity of infection of 5 (40,000 amastigotes per well). After 40 min at RT, plates were returned to the incubator. Amastigotes were incubated in the presence of THP-1 macrophages for 16 h. Any remaining extracellular amastigotes were subsequently removed with an overflow wash of 1 mL PBS-A per well (wash buffer is being aspirated from the top of the well as it is being dispensed) followed by addition of 25 μl of the compound pre-dilutions using a Fluidx Ipette-pro pipetting station. The final dilution of each compound was 200-fold. Plates were incubated for 96 h and then washed (250 μl PBS-A) and fixed (4% (v/v) formaldehyde-PBS, 30 min, RT). After fixation, the wells were washed with 250 μl PBS, stained (10 μg/mL DAPI, 0.4 μg mL-1 HCS Cellmask Deep Red in PBS+0.1% (v/v) Triton X-100, 30 min, RT) and washed with 250 μl PBS. Finally, PBS+0.05% (v/v) thimerosal was added to the wells, the plates were sealed and imaged on a high-content microscope (GE IN Cell 2000) using a 10× objective. Image analysis was carried out with GE IN Cell Analyzer 1000 Workstation using the “Multi Target Analysis” module. Settings for segmentation were as follows: nuclei: minimum area: 142.384 μm2, sensitivity: 81, method: top-hat; cells: characteristic area: 2500 μm2, sensitivity: 60, method: multiscale top-hat; organelles (amastigotes): granule size 1-3, 3 scales, sensitivity: 90, detection in entire cell. For each well, i) THP-1 cell count (cytotoxicity readout) and ii) average number of amastigotes per cell (potency readout) were calculated, both in terms of pEC50 values.

Leishmania donovani [2] = assay: Leishmania donovani intracellular assay (Assay 5); format: cell-based; details: THP-1, 96 h, eGFP amastigotes in THP-1 cells, 96 h incubation, read-out: pEC50 value against Leishmania donovani (converted)
Experimental: Assay 5. Leishmania donovani Intracellular Assay
Compounds were dispensed into black 384-well assay plates (Greiner) by acoustic dispensing (LabCyte ECHO). For potency determinations, eleven-point, one in three dilution curves were generated, with a top concentration of 50 μM. THP-1 human monocytes cells were dispensed in T225 tissue culture flasks and differentiated using 30 nM of PMA, after 24 hours they were infected overnight using Leishmania donovani expressing Green Fluorescent Protein (eGFP) amastigotes in the same T225 tissue culture flasks at a multiplicity of infection of 10. Next, any remaining free amastigotes were washed away with PBS and the infected THP-1 cells were harvested by trypsinisation. The infected cells were then plated into 384-well plates containing the compounds to be tested, at 3000 cells per well in RPMI media with 2% FBS and 25 mM Sodium bicarbonate. After 96 h incubation at 37° C. in presence of 5% CO2, the plates were fixed with 4% formaldehyde for 30 minutes, washed with PBS and stained with 0.1 mg/mL of DAPI for 30 minutes and washed again with PBS. The plates were imaged on a Perkin Elmer Opera high-content imaging system using a 20× air objective with two expositions, one for DAPI stain and other for eGFP. Images were analysed using the Acapella building blocks system (Perkin Elmer). The image analysis algorithm first identified the THP-1 nuclei followed by demarcation of the cytoplasm and identification of intracellular amastigotes. This algorithm reported mean number of parasites per THP-1 cell, the percentage of infected THP-1 cells and the total number of THP-1 cells.

| SMILES | EC50 (Leishmania donovani [1]) | EC50 (Leishmania donovani [2]) |
| --- | --- | --- |
| O=C(Nc1cccc(-c2ccn3c(N4CCOCC4)cnc3n2)c1)N1CCCC1 [Example 1, N-(3-(3-morpholinoimidazo[1,2-a]pyrimidin-7-yl)phenyl)pyrrolidine-1-carboxamide] | 0.251 to 10 µM | 0.126 to 10 µM |
| O=C(Nc1ccc(F)c(-c2cnn3c(Br)cnc3n2)c1)N1CCCC1 [Example 6, N-(3-(7-bromoimidazo[1,2-b][1,2,4]triazin-3-yl)-4-fluorophenyl)pyrrolidine-1-carboxamide] | 0.251 to 10 µM | – |
| O=C(Nc1ccc(F)c(-c2cnn3c(N4CCOCC4)cnc3n2)c1)N1CCCC1 [Example 8, N-(4-fluoro-3-(7-morpholinoimidazo[1,2-b][1,2,4]triazin-3-yl)phenyl)pyrrolidine-1-carboxamide] | 0.251 to 10 µM | – |
| O=C(Nc1cccc(-c2cnn3c(N4CCOCC4)cnc3n2)c1)N1CCCC1 [Example 9, N-(3-(7-morpholinoimidazo[1,2-b][1,2,4]triazin-3-yl)phenyl)pyrrolidine-1-carboxamide] | 0.251 to 10 µM | – |
| O=C(Nc1cccc(-c2cnn3c(-c4ccccc4)cnc3n2)c1)N1CCCC1 [Example 10, N-(3-(7-phenylimidazo[1,2-b][1,2,4]triazin-3-yl)phenyl)pyrrolidine-1-carboxamide] | 0.251 to 10 µM | – |
| O=C(Nc1ccc(F)c(-c2cnn3ccnc3n2)c1)N1CCCC1 [Example 11, N-(4-fluoro-3-(imidazo[1,2-b][1,2,4]triazin-3-yl)phenyl)pyrrolidine-1-carboxamide] | 12.6 to 20 µM | – |
| Cc1cc(-c2cc(NC(=O)N3CCCC3)ccc2F)nc2ncc(N3CCOCC3)n12 [Example 12, N-(4-fluoro-3-(5-methyl-3-morpholinoimidazo[1,2-a]pyrimidin-7-yl)phenyl)pyrrolidine-1-carboxamide] | 0.251 to 10 µM | 0.126 to 10 µM |
| CCc1cc(-c2cc(NC(=O)N3CCCC3)ccc2F)nc2ncc(N3CCOCC3)n12 [Example 13, N-(3-(5-ethyl-3-morpholinoimidazo[1,2-a]pyrimidin-7-yl)-4-fluorophenyl)pyrrolidine-1-carboxamide] | 0.251 to 10 µM | 0.126 to 10 µM |
| Cc1cn2c(N3CCOCC3)cnc2nc1-c1cccc(NC(=O)N2CCCC2)c1 [Example 14, N-(3-(6-methyl-3-morpholinoimidazo[1,2-a]pyrimidin-7-yl)phenyl)pyrrolidine-1-carboxamide] | > 50.1 µM | 12.6 to 39.8 µM |
| Cc1cn2c(N3CCOCC3)cnc2nc1-c1cc(NC(=O)N2CCCC2)ccc1F [Example 15, N-(4-fluoro-3-(6-methyl-3-morpholinoimidazo[1,2-a]pyrimidin-7-yl)phenyl)pyrrolidine-1-carboxamide] | 12.6 to 20 µM | 12.6 to 39.8 µM |
| CC(C)c1cnc2nc(-c3cc(NC(=O)N4CCCC4)ccc3F)ccn12 [Example 18, N-(4-fluoro-3-(3-isopropylimidazo[1,2-a]pyrimidin-7-yl)phenyl)pyrrolidine-1-carboxamide] | 0.251 to 10 µM | 0.126 to 10 µM |
| O=C(Nc1ccc(F)c(-c2ccn3c(CN4CCOCC4)cnc3n2)c1)N1CCCC1 [Example 20, N-(4-fluoro-3-(3-(morpholinomethyl)imidazo[1,2-a]pyrimidin-7-yl)phenyl)pyrrolidine-1-carboxamide] | 12.6 to 20 µM | 0.126 to 10 µM |
| O=C(Nc1ccc(F)c(-c2ccn3c(-c4ccc(CN5CCOCC5)cc4)cnc3n2)c1)N1CCCC1 [Example 21, N-(4-fluoro-3-(3-(4-(morpholinomethyl)phenyl)imidazo[1,2-a]pyrimidin-7-yl)phenyl)pyrrolidine-1-carboxamide] | 0.251 to 10 µM | 0.126 to 10 µM |
| O=C(Nc1ccc(F)c(-c2ccn3c(N4CCCOCC4)cnc3n2)c1)N1CCCC1 [Example 22, N-(3-(3-(1,4-oxazepan-4-yl)imidazo[1,2-a]pyrimidin-7-yl)-4-fluorophenyl)pyrrolidine-1-carboxamide] | 0.251 to 10 µM | 0.126 to 10 µM |
| O=C(Nc1ccc(F)c(-c2ccn3c(N4CCOCC4)cnc3n2)c1)N1CC[C@@H](F)C1 [Example 23, 3-fluoro-N-(4-fluoro-3-(3-morpholinoimidazo[1,2-a]pyrimidin-7-yl)phenyl)pyrrolidine-1-carboxamide] | – | 0.126 to 10 µM |
| O=C(Nc1ccc(F)c(-c2ccn3c(N4CCOCC4)cnc3n2)c1)N1CC(F)(F)C1 [Example 24, 3,3-difluoro-N-(4-fluoro-3-(3-morpholinoimidazo[1,2-a]pyrimidin-7-yl)phenyl)azetidine-1-carboxamide] | 0.251 to 10 µM | 0.126 to 10 µM |
| C[C@H]1CCN(C(=O)Nc2ccc(F)c(-c3ccn4c(N5CCOCC5)cnc4n3)c2)C1 [Example 34a] | 0.251 to 10 µM | – |
| O=C(Nc1ccc(F)c(-c2ccn3c(C4COCCN4)cnc3n2)c1)N1CCCC1 (stereo not drawn) [Example 38, N-(4-fluoro-3-(3-(morpholin-3-yl)imidazo[1,2-a]pyrimidin-7-yl)phenyl)pyrrolidine-1-carboxamide] | 12.6 to 20 µM | – |
| O=C(Nc1ccc(F)c(-c2ccn3c(CC4CCCO4)cnc3n2)c1)N1CCCC1 (stereo not drawn) [Example 45, N-(4-fluoro-3-(3-((tetrahydrofuran-2-yl)methyl)imidazo[1,2-a]pyrimidin-7-yl)phenyl)pyrrolidine-1-carboxamide] | – | 0.126 to 10 µM |
| O=C(Nc1ccc(F)c(-c2ccn3c(N4CCOCC4)cnc3n2)c1)N1CCC1 [Example 51, N-(4-fluoro-3-(3-morpholinoimidazo[1,2-a]pyrimidin-7-yl)phenyl)azetidine-1-carboxamide] | – | 0.126 to 10 µM |
| O=C1CN(c2cnc3nc(-c4cc(NC(=O)N5CCCC5)ccc4F)ccn23)CCN1 [Example 52, N-(4-fluoro-3-(3-(3-oxopiperazin-1-yl)imidazo[1,2-a]pyrimidin-7-yl)phenyl)pyrrolidine-1-carboxamide] | > 50.1 µM | – |
| N#Cc1ccc(NC(=O)N2CCCC2)cc1-c1ccn2c(N3CCOCC3)cnc2n1 [N-(4-cyano-3-(3-morpholinoimidazo[1,2-a]pyrimidin-7-yl)phenyl)pyrrolidine-1-carboxamide] | > 50.1 µM | – |
| Cc1cc(F)c(-c2ccn3c(N4CCOCC4)cnc3n2)cc1NC(=O)N1CCCC1 [N-(4-fluoro-2-methyl-5-(3-morpholinoimidazo[1,2-a]pyrimidin-7-yl)phenyl)pyrrolidine-1-carboxamide] | > 50.1 µM | – |
| CC1(C)CCCN1C(=O)Nc1ccc(F)c(-c2ccn3c(N4CCOCC4)cnc3n2)c1 [N-(4-fluoro-3-(3-morpholinoimidazo[1,2-a]pyrimidin-7-yl)phenyl)-2,2-dimethylpyrrolidine-1-carboxamide] | > 50.1 µM | – |
| CC1(C)CN(C(=O)Nc2ccc(F)c(-c3ccn4c(N5CCOCC5)cnc4n3)c2)C1 [N-(4-fluoro-3-(3-morpholinoimidazo[1,2-a]pyrimidin-7-yl)phenyl)-3,3-dimethylazetidine-1-carboxamide] | > 50.1 µM | – |
| CC1(C)CCN(C(=O)Nc2ccc(F)c(-c3ccn4c(N5CCOCC5)cnc4n3)c2)C1 [N-(4-fluoro-3-(3-morpholinoimidazo[1,2-a]pyrimidin-7-yl)phenyl)-3,3-dimethylpyrrolidine-1-carboxamide] | > 50.1 µM | – |
